From ChEMBL document CHEMBL3862027, “Synthesis and antimalarial activity of N-benzylated (N-arylcarbamoyl)alkylphosphonic acid derivatives” (Bioorg Med Chem, 2016)
pIC50: −log10 of the molar value.

Experiments:
[1] = Cytotoxicity against human HeLa cells assessed as cell viability at 20 uM after 24 hrs by resazurin based fluorescence assay relative to control; type: toxicity; details: read-out: Activity
Plasmodium falciparum [2] = experiment: Antimalarial activity against Plasmodium falciparum 3D7 infected in human erythrocytes assessed as cell viability at 20 uM after 48 hrs by lactate dehydrogenase assay; type: functional
Plasmodium falciparum [3] = experiment: Antimalarial activity against Plasmodium falciparum 3D7 infected in human erythrocytes after 48 hrs by lactate dehydrogenase assay; type: functional, cell-based; details: 3D7, 48 h
Plasmodium falciparum [4] = experiment: Inhibition of Plasmodium falciparum DXR at 20 uM using DOXP as substrate preincubated for 5 mins followed by substrate addition measured for 10 mins in presence of NADPH by spectrophotometric analysis

With `CCOP(=O)(CC(=O)Nc1cccc([N+](=O)[O-])c1)OCC` the viability at 24 h, 20 µM [1] was 83.1% and the Activity (Plasmodium falciparum [2]) was 64.13%.
Work on `C#CCNC(=O)CCP(=O)(OCC)OCC` yielded a viability at 24 h, 20 µM [1] of 92%, an Activity (Plasmodium falciparum [2]) of -4.04% and a pIC50 (Plasmodium falciparum [3]) of 4.70.
`CCOP(=O)(CC(=O)Nc1cccc(CO)c1)OCC` gave a viability at 24 h, 20 µM [1] of 123%, an Activity (Plasmodium falciparum [2]) of -7.26% and a pIC50 (Plasmodium falciparum [3]) of 4.99.
With `CCOP(=O)(CCC(=O)N(Cc1ccccc1)c1cccc(Br)c1)OCC` the viability at 24 h, 20 µM [1] was 121% and the Activity (Plasmodium falciparum [2]) was 35.19%.
`C#CCNC(=O)CCP(=O)(O)O` showed an inhibition (Plasmodium falciparum [4]) of 6.7%.
Work on `CCOP(=O)(CCC(=O)Nc1cccc(O)c1)OCC` yielded a viability at 24 h, 20 µM [1] of 119% and an Activity (Plasmodium falciparum [2]) of 54.54%.
Work on `CC(=O)N(O)CCCP(=O)(O)O` yielded an inhibition (Plasmodium falciparum [4]) of 73.3%.
For `CCOP(=O)(CC(=O)Nc1cccc(O[Si](C)(C)C(C)(C)C)c1)OCC`, the viability at 24 h, 20 µM [1] was 85.7% and the Activity (Plasmodium falciparum [2]) was 61.87%.
`O=C(CCP(=O)(O)O)N(Cc1ccccc1)c1ccccn1` gave an inhibition (Plasmodium falciparum [4]) of 0%.
`CCOP(=O)(CCC(=O)N(Cc1ccccc1)c1cccc(O)c1)OCC` showed a viability at 24 h, 20 µM [1] of 120%, an Activity (Plasmodium falciparum [2]) of -8.05% and a pIC50 (Plasmodium falciparum [3]) of 4.80.
In the case of `CCOP(=O)(CC(=O)Nc1cccc(Br)c1)OCC`, the viability at 24 h, 20 µM [1] was 102% and the Activity (Plasmodium falciparum [2]) was 50.91%.
Work on `CCOP(=O)(CCC(=O)N(Cc1ccccc1)c1cccc(OCc2ccccc2)c1)OCC` yielded a viability at 24 h, 20 µM [1] of 108%, an Activity (Plasmodium falciparum [2]) of 6.84% and a pIC50 (Plasmodium falciparum [3]) of 4.79.
`CCOP(=O)(CCC(=O)N(Cc1ccccc1)c1ccccn1)OCC` showed a viability at 24 h, 20 µM [1] of 113%, an Activity (Plasmodium falciparum [2]) of -5.33% and a pIC50 (Plasmodium falciparum [3]) of 4.65.
For `CCOP(=O)(CC(=O)Nc1cccc(O)c1)OCC`, the viability at 24 h, 20 µM [1] was 117% and the Activity (Plasmodium falciparum [2]) was 52.42%.
With `CCOP(=O)(CCC(=O)N(Cc1ccccc1)c1cccc([N+](=O)[O-])c1)OCC` the viability at 24 h, 20 µM [1] was 118% and the Activity (Plasmodium falciparum [2]) was 59.6%.
Compound `C#CCNC(=O)CP(=O)(OCC)OCC` has a viability at 24 h, 20 µM [1] of 104% and an Activity (Plasmodium falciparum [2]) of 47.96%.
`CCOP(=O)(CC(=O)Nc1ccccn1)OCC` showed a viability at 24 h, 20 µM [1] of 131%, an Activity (Plasmodium falciparum [2]) of -19.39% and a pIC50 (Plasmodium falciparum [3]) of 4.64.
Compound `CCOP(=O)(CCC(=O)Nc1cccc(OCc2ccccc2)c1)OCC` has a viability at 24 h, 20 µM [1] of 105% and an Activity (Plasmodium falciparum [2]) of 51.13%.
`CCOP(=O)(CCC(=O)N(Cc1ccccc1)c1cccc(CO)c1)OCC` gave a viability at 24 h, 20 µM [1] of 110% and an Activity (Plasmodium falciparum [2]) of 55.44%.
`O=C(CCP(=O)(O)O)N(Cc1ccccc1)c1cccc(O)c1` gave an inhibition (Plasmodium falciparum [4]) of 0%.
